Experimental data reported in PubChem BioAssay (NCI).
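Each compound was tested at five concentrations against cells in 96-well plates for 48 hours. TGI: concentration producing complete growth inhibition.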

Assays:
Assay in all cases: NCI tumour cell line growth inhibition, 48 h
KM20L2 colon = tested on: KM20L2 colon
KM12 colon = tested on: KM12 colon
UO-31 renal = tested on: UO-31 renal
A549 NSCLC = tested on: A549 NSCLC
MALME-3M melanoma = tested on: MALME-3M melanoma
OVCAR-3 ovarian = tested on: OVCAR-3 ovarian
A498 renal = tested on: A498 renal
SK-MEL-2 melanoma = tested on: SK-MEL-2 melanoma
XF 498 CNS = tested on: XF 498 CNS
DLD-1 colon = tested on: DLD-1 colon
LXFL 529 NSCLC = tested on: LXFL 529 NSCLC
UACC-62 melanoma = tested on: UACC-62 melanoma
DMS 114 small cell lung = tested on: DMS 114 small cell lung
TK-10 renal = tested on: TK-10 renal
U251 CNS = tested on: U251 CNS
RXF 393 renal = tested on: RXF 393 renal
SF-539 CNS = tested on: SF-539 CNS
786-0 renal = tested on: 786-0 renal
MOLT-4 leukemia = tested on: MOLT-4 leukemia
HOP-92 NSCLC = tested on: HOP-92 NSCLC
OVCAR-5 ovarian = tested on: OVCAR-5 ovarian
SK-MEL-5 melanoma = tested on: SK-MEL-5 melanoma
OVCAR-8 ovarian = tested on: OVCAR-8 ovarian
NCI-H460 lung = tested on: NCI-H460 lung
SK-MEL-28 melanoma = tested on: SK-MEL-28 melanoma
EKVX NSCLC = tested on: EKVX NSCLC
NCI-H23 lung = tested on: NCI-H23 lung
DMS 273 small cell lung = tested on: DMS 273 small cell lung
SN12C renal = tested on: SN12C renal
SNB-78 CNS = tested on: SNB-78 CNS
IGROV1 ovarian = tested on: IGROV1 ovarian
SK-OV-3 ovarian = tested on: SK-OV-3 ovarian
CAKI-1 renal = tested on: CAKI-1 renal
SW-620 colon = tested on: SW-620 colon
HCT-116 colon = tested on: HCT-116 colon
HCT-15 colon = tested on: HCT-15 colon
M19-MEL melanoma = tested on: M19-MEL melanoma
ACHN renal = tested on: ACHN renal
SF-295 CNS = tested on: SF-295 CNS
M14 melanoma = tested on: M14 melanoma
UACC-257 melanoma = tested on: UACC-257 melanoma
HOP-62 NSCLC = tested on: HOP-62 NSCLC
HCC-2998 colon = tested on: HCC-2998 colon
K-562 leukemia = tested on: K-562 leukemia
CCRF-CEM leukemia = tested on: CCRF-CEM leukemia
SF-268 CNS = tested on: SF-268 CNS
HOP-18 NSCLC = tested on: HOP-18 NSCLC
RXF-631 renal = tested on: RXF-631 renal
NCI-H226 lung = tested on: NCI-H226 lung
NCI-H522 lung = tested on: NCI-H522 lung
LOX IMVI melanoma = tested on: LOX IMVI melanoma
SR leukemia = tested on: SR leukemia
OVCAR-4 ovarian = tested on: OVCAR-4 ovarian
COLO 205 colon = tested on: COLO 205 colon
SNB-75 CNS = tested on: SNB-75 CNS
SNB-19 CNS = tested on: SNB-19 CNS
RPMI-8226 leukemia = tested on: RPMI-8226 leukemia
HT29 colon = tested on: HT29 colon
HL-60(TB) leukemia = tested on: HL-60(TB) leukemia

In the case of `COc1ccc(N2C(=O)c3c(c4[nH]c5ccccc5c4c4ccc(C(C)(C)C)cc34)C2=O)cc1`, the TGI (KM20L2 colon) is reported as > 100 µM, the TGI (KM12 colon) is reported as > 100 µM and the TGI (UO-31 renal) is reported as > 100 µM. The TGI (A549 NSCLC) was > 100 µM, the TGI (MALME-3M melanoma) was > 100 µM and the TGI (OVCAR-3 ovarian) was 53.6 µM. For the same molecule, the TGI (A498 renal) was 77.1 µM, the TGI (SK-MEL-2 melanoma) was 71.8 µM and the TGI (XF 498 CNS) was 49.8 µM. For the same molecule, the TGI (DLD-1 colon) was > 100 µM, the TGI (LXFL 529 NSCLC) was > 100 µM and the TGI (UACC-62 melanoma) was 48.3 µM. For the same molecule, the TGI (DMS 114 small cell lung) was > 100 µM, the TGI (TK-10 renal) was > 100 µM and the TGI (U251 CNS) was 42.7 µM. For the same molecule, the TGI (RXF 393 renal) was 98.1 µM, the TGI (SF-539 CNS) was > 100 µM and the TGI (786-0 renal) was > 100 µM. The TGI (MOLT-4 leukemia) was 52 µM, the TGI (HOP-92 NSCLC) was 64.2 µM and the TGI (OVCAR-5 ovarian) was > 100 µM. The TGI (SK-MEL-5 melanoma) was > 100 µM, the TGI (OVCAR-8 ovarian) was 63.6 µM and the TGI (NCI-H460 lung) was > 100 µM. The TGI (SK-MEL-28 melanoma) was > 100 µM, the TGI (EKVX NSCLC) was > 100 µM and the TGI (NCI-H23 lung) was 51 µM. The TGI (DMS 273 small cell lung) was > 100 µM, the TGI (SN12C renal) was > 100 µM and the TGI (SNB-78 CNS) was 60 µM. The TGI (IGROV1 ovarian) was > 100 µM, the TGI (SK-OV-3 ovarian) was > 100 µM and the TGI (CAKI-1 renal) was > 100 µM. For the same molecule, the TGI (SW-620 colon) was > 100 µM, the TGI (HCT-116 colon) was > 100 µM and the TGI (HCT-15 colon) was > 100 µM. The TGI (M19-MEL melanoma) was > 100 µM, the TGI (ACHN renal) was > 100 µM and the TGI (SF-295 CNS) was 92.9 µM. For the same molecule, the TGI (M14 melanoma) was > 100 µM, the TGI (UACC-257 melanoma) was > 100 µM and the TGI (HOP-62 NSCLC) was > 100 µM. The TGI (HCC-2998 colon) was > 100 µM, the TGI (K-562 leukemia) was > 100 µM and the TGI (CCRF-CEM leukemia) was 42.1 µM. For the same molecule, the TGI (SF-268 CNS) was 74.4 µM, the TGI (HOP-18 NSCLC) was > 100 µM and the TGI (RXF-631 renal) was > 100 µM. For the same molecule, the TGI (NCI-H226 lung) was > 100 µM, the TGI (NCI-H522 lung) was > 100 µM and the TGI (LOX IMVI melanoma) was > 100 µM. The TGI (SR leukemia) was 57.2 µM, the TGI (OVCAR-4 ovarian) was 52.9 µM and the TGI (COLO 205 colon) was > 100 µM. For the same molecule, the TGI (SNB-75 CNS) was 35.4 µM and the TGI (SNB-19 CNS) was > 100 µM.
`CCOC(=O)C(C)(NC(=O)c1ccc(NCc2ccc3nc(NC(=O)c4ccccc4)nc(NC(=O)c4ccccc4)c3c2)cc1)C(=O)OCC` showed a TGI (KM20L2 colon) of 85.3 µM, a TGI (UO-31 renal) of 34.9 µM and a TGI (A549 NSCLC) of 35.2 µM. For the same molecule, the TGI (MALME-3M melanoma) was 38 µM, the TGI (OVCAR-3 ovarian) was 22.1 µM and the TGI (A498 renal) was 22.7 µM. The TGI (SK-MEL-2 melanoma) was 34.7 µM, the TGI (DLD-1 colon) was > 100 µM and the TGI (UACC-62 melanoma) was 22.1 µM. For the same molecule, the TGI (RPMI-8226 leukemia) was > 100 µM, the TGI (HT29 colon) was 39.1 µM and the TGI (DMS 114 small cell lung) was 42 µM. It also gave a TGI (TK-10 renal) of 48.9 µM, a TGI (U251 CNS) of 21 µM and a TGI (RXF 393 renal) of 7.92 µM. The TGI (SF-539 CNS) was 9.88 µM, the TGI (786-0 renal) was 13.3 µM and the TGI (MOLT-4 leukemia) was > 100 µM. The TGI (HOP-92 NSCLC) was 18.9 µM, the TGI (OVCAR-5 ovarian) was > 100 µM and the TGI (SK-MEL-5 melanoma) was 22.7 µM. The TGI (HL-60(TB) leukemia) was > 100 µM, the TGI (OVCAR-8 ovarian) was 17.8 µM and the TGI (NCI-H460 lung) was 32.5 µM. For the same molecule, the TGI (SK-MEL-28 melanoma) was 27.6 µM, the TGI (EKVX NSCLC) was 39.5 µM and the TGI (NCI-H23 lung) was 27.5 µM. It also gave a TGI (DMS 273 small cell lung) of 27.5 µM, a TGI (SN12C renal) of 29.8 µM and a TGI (SNB-78 CNS) of 45.4 µM. The TGI (IGROV1 ovarian) was 63.3 µM, the TGI (SK-OV-3 ovarian) was 27.4 µM and the TGI (CAKI-1 renal) was 21.9 µM. For the same molecule, the TGI (SW-620 colon) was > 100 µM, the TGI (HCT-116 colon) was 24 µM and the TGI (HCT-15 colon) was > 100 µM. The TGI (M19-MEL melanoma) was 24.9 µM, the TGI (ACHN renal) was 23.6 µM and the TGI (SF-295 CNS) was 19.9 µM. It also gave a TGI (M14 melanoma) of 44.3 µM, a TGI (UACC-257 melanoma) of 36.4 µM and a TGI (HOP-62 NSCLC) of 31.2 µM. For the same molecule, the TGI (HCC-2998 colon) was 69.7 µM, the TGI (SF-268 CNS) was 28.7 µM and the TGI (HOP-18 NSCLC) was > 100 µM. The TGI (RXF-631 renal) was 51 µM, the TGI (NCI-H226 lung) was 28.4 µM and the TGI (NCI-H522 lung) was 32.1 µM. The TGI (LOX IMVI melanoma) was 34.1 µM, the TGI (SR leukemia) was > 100 µM and the TGI (OVCAR-4 ovarian) was 4.18 µM. For the same molecule, the TGI (COLO 205 colon) was > 100 µM and the TGI (SNB-75 CNS) was 7 µM.
With `CCCNC(=O)Nc1c([N+](=O)[O-])cc(C(F)(F)F)cc1[N+](=O)[O-]` the TGI (KM20L2 colon) was 61.4 µM, the TGI (KM12 colon) was > 100 µM and the TGI (UO-31 renal) was > 100 µM. For the same molecule, the TGI (A549 NSCLC) was > 100 µM, the TGI (OVCAR-3 ovarian) was 61.2 µM and the TGI (A498 renal) was > 100 µM. The TGI (SK-MEL-2 melanoma) was > 100 µM, the TGI (XF 498 CNS) was > 100 µM and the TGI (LXFL 529 NSCLC) was > 100 µM. For the same molecule, the TGI (UACC-62 melanoma) was > 100 µM, the TGI (RPMI-8226 leukemia) was > 100 µM and the TGI (HT29 colon) was > 100 µM. The TGI (TK-10 renal) was > 100 µM, the TGI (U251 CNS) was > 100 µM and the TGI (RXF 393 renal) was 76.1 µM. The TGI (SF-539 CNS) was > 100 µM, the TGI (786-0 renal) was > 100 µM and the TGI (MOLT-4 leukemia) was > 100 µM. For the same molecule, the TGI (HOP-92 NSCLC) was > 100 µM, the TGI (OVCAR-5 ovarian) was > 100 µM and the TGI (SK-MEL-5 melanoma) was > 100 µM. The TGI (HL-60(TB) leukemia) was 82.7 µM, the TGI (OVCAR-8 ovarian) was > 100 µM and the TGI (NCI-H460 lung) was > 100 µM. For the same molecule, the TGI (SK-MEL-28 melanoma) was > 100 µM, the TGI (EKVX NSCLC) was > 100 µM and the TGI (NCI-H23 lung) was > 100 µM. For the same molecule, the TGI (DMS 273 small cell lung) was > 100 µM, the TGI (SNB-78 CNS) was > 100 µM and the TGI (IGROV1 ovarian) was > 100 µM. The TGI (SK-OV-3 ovarian) was > 100 µM, the TGI (CAKI-1 renal) was > 100 µM and the TGI (SW-620 colon) was > 100 µM. For the same molecule, the TGI (HCT-116 colon) was > 100 µM, the TGI (HCT-15 colon) was > 100 µM and the TGI (M19-MEL melanoma) was 69.1 µM. The TGI (ACHN renal) was > 100 µM, the TGI (SF-295 CNS) was > 100 µM and the TGI (M14 melanoma) was > 100 µM. For the same molecule, the TGI (UACC-257 melanoma) was > 100 µM, the TGI (HOP-62 NSCLC) was > 100 µM and the TGI (K-562 leukemia) was > 100 µM. The TGI (CCRF-CEM leukemia) was > 100 µM, the TGI (SF-268 CNS) was > 100 µM and the TGI (RXF-631 renal) was > 100 µM. For the same molecule, the TGI (NCI-H226 lung) was > 100 µM, the TGI (NCI-H522 lung) was 97.5 µM and the TGI (LOX IMVI melanoma) was > 100 µM. The TGI (SR leukemia) was > 100 µM, the TGI (OVCAR-4 ovarian) was 73.7 µM and the TGI (SNB-75 CNS) was > 100 µM. The TGI (SNB-19 CNS) was > 100 µM.
